Results on 11 compounds are retold here after patent US5707989A, “Pyrimido[5,4-D]pyrimidines, medicaments comprising these compounds, their use and processes for their preparation” (Dr. Karl Thomae GmbH, priority 1994, dated 1998).

Structures are written as SMILES. Some results are limits rather than exact numbers.

What all share (assay type): cell-based
The test system of assay [1] is human tumour cell line KB. Put plainly: EGF/TGF-alpha-stimulated proliferation (thymidine incorporation) of KB cells. The conditions noted are these: TGF-alpha 10 ng/ml or EGF 20 ng/ml, 60 hours, then [3H]-thymidine 16-18 hours, read-out: IC50 for inhibition of the EGF/TGF-alpha-stimulated KB cell proliferation. The protocol:
KB cells (obtained from ATCC) were passaged in DMEM (BioWhittaker) in the presence of 10% FCS (Boehringer Mannheim), 50 μM beta-mercaptoethanol and standard antibiotics. As an indicator of EGF/TGF-alpha-stimulated cell proliferation, the EGF-inducedDNA synthesis was determined by measurement of the incorporation of radioactively labelled thymidine. For this, the celels were washed twice and 1500 cells per well were plated out in a 96-well plate in 200 μl IMDM (BioWhittaker) without serum in the presence of 50 μM beta-mercaptoethanol, standard antibiotics, TGF-alpha [10 ng/ml] or EGF [20 ng/ml] and various concentrations of the substances according to the invention (triplicates, maximum DMSO concentration 1%, see proliferation test with F/L-HERc cells). After 60 hours, [^3 H]-thymidine (0.1 μCi in 10 μl) was added for about 16-18 hours. Subsequent measurement of the thymidine incorporation gave IC50 values of 0.1-1 μM for inhibition of the EGF/TGF-alpha-stimulated KB cell proliferation for compounds 2, 6, 17, 18, 19, 72, 83, 93, 95, 96 and 104 of Example 1.

The target of the next assay is T1, human EGF-R (Homo sapiens, UniProt P00533).
T1 construct: expressed in transfected cells; host or cells: F/L-HERc cells: murine IL-3-dependent line FDC-P1 infected with recombinant retrovirus (LXSN vector, GP+E86 packaging line) carrying human EGF-R cDNA
T1 sequence (P00533 25-1210): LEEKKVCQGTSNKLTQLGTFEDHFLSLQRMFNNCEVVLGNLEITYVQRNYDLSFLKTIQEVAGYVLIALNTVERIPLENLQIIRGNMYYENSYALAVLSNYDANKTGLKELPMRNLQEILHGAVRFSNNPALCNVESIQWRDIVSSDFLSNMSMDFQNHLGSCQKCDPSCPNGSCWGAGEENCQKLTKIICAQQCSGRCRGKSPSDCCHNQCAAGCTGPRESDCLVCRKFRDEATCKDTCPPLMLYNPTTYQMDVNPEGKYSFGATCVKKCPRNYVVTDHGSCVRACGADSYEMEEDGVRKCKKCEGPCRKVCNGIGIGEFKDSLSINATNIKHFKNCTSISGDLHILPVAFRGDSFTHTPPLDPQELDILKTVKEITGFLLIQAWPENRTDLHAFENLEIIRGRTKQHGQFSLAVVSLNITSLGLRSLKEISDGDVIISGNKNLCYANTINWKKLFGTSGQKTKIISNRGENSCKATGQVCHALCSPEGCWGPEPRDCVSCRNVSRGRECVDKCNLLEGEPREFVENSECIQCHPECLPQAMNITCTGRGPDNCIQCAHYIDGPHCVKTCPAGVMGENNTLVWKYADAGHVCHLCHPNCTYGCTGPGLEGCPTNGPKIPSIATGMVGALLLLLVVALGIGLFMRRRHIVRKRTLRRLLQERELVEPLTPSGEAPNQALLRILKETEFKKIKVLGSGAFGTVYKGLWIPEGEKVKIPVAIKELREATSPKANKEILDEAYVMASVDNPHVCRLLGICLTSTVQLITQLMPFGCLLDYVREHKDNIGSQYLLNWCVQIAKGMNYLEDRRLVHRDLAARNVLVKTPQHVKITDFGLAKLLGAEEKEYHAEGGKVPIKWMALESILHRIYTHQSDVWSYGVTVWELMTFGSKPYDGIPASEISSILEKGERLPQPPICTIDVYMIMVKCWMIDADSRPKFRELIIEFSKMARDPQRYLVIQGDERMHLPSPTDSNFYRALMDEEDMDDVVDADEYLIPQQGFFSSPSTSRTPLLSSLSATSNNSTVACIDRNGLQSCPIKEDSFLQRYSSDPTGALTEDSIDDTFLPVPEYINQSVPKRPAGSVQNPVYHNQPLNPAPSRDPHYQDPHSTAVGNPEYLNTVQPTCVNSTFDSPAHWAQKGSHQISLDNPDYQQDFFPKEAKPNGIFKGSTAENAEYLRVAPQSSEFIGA
Put plainly: Inhibition of EGF-dependent proliferation of F/L-HERc cells. As to conditions: human EGF 20 ng/ml, 48 hours. An excerpt:
(§1) The inhibition of EGF-R-mediated signal transmission can be detected, for example, with cells which express human EGF-R, the survival and proliferation of which depend on stimulation by EGF or TGF-alpha. An interleukin-3 (IL-3)-dependent cell line of murine origin which was changed genetically such that it expresses functional human EGF-R was used here. The proliferation of these cells, called F/L-HERc, can therefore be stimulated either by murine IL-3 or by EGF (see von Ruden, T. et al. in EMBO J. 7, 2749-2756 (1988) and Pierce, J. H. et al. in Science 239, 628-631 (1988)).
(§2) The starting material used for the F/L-HERc cells was the cell line FDC-P1, the preparation of which has been described by Dexter, T. M. et al. in J. Exp. Med. 152, 1036-1047 (1980). Alternatively, however, other growth factor-dependent cells can also be used (see, for example, Pierce, J. H. et al. in Science 239, 628-631 (1988), Shibuya, H. et al. in Cell 70, 57-67 (1992) and Alexander, W. S. et al. in EMBO J. 10, 3683-3691 (1991)). Recombinant retroviruses were used for expression of the human EGF-R cDNA (see Ullrich, A. et al. in Nature 309, 418-425 (1984)), as described in yon Ruden, T. et al., EMBO J. 7, 2749-2756 (1988), with the difference that the retroviral vector LXSN (see Miller, A. D. et al. in BioTechniques 7, 980-990 (1989)) was used for expression of the EGF-R cDNA and the line GP+E86 (see Markowitz, D. et al. in J. Virol. 62, 1120-1124 (1988)) was used as the packing cell.
(§3) The test was carried out as follows:
(§4) F/L HERc cells were cultured at 37° C. and 5% CO2 in RPMI/1640 medium (BioWhittaker), supplemented with 10% foetal bovine serum (FCS, Boehringer Mannheim), 2 mM glutamine (BioWhittaker), standard antibiotics and 20 ng/ml of human EGF (Promega). For investigation of the inhibitory activity of the compounds according to the invention, 1.5×10^4 cells per well were cultured in triplicate in 96-well plates in the above medium (200 μl), proliferation of the cells being stimulated with either EGF (20 ng/ml) or murine IL-3. Culture stocks of the cell line X63/0 mIL-3 were used as the source for IL-3 (see Karasuyama, H. et al. in Eur. J. Immunol. 18, 97-104 (1988)). The compounds according to the invention were dissolved in 100% dimethyl sulphoxide (DMSO) and added to the cultures in various dilutions, the maximum DMSO concentration being 1%. The cultures were incubated at 37° C. for 48 hours.
(§5) To determine the inhibitory activity of the compounds according to the invention, the relative cell count was measured in OD units with Cell Titer 96™ Aqueous Non-Radioactive Cell Proliferation Assay (Promega). The relative cell count was calculated in per cent of the control (F/LHERc cells without inhibitor) and the active compound concentration which inhibits the proliferation of the cells to 50% (IC50) was deduced.

A further assay has as its system F/L-HERc cells. Put plainly: Inhibition of IL-3-dependent proliferation of F/L-HERc cells. As to conditions: Mus musculus, murine IL-3, 48 hours.
Source text: as §1, §2, §3, §4, §5

Turning to `Clc1cccc(Nc2ncnc3cnc(N4CCCC4)nc23)c1` [Example 1(93), 4-[(3-Chlorophenyl)amino]-6-(1-pyrrolidinyl)-pyrim-ido[5,4-d]pyrimidine], the IC50 in assay [1] lay in the range of 100 to 1000 nM.

For the compound `Cc1cccc(Nc2ncnc3cnc(N4CCOCC4)nc23)c1` [1(19), 4-[(3-Methylphenyl)amino]-6-(morpholino)-pyrimido[5,4-d]pyrimidine], the figures for the IC50 (at human EGF-R; in the assay on F/L-HERc cells; in assay [1]) were 50 nM, over 10 µM and 100 to 1000 nM, respectively.

As for `Cc1cccc(Nc2ncnc3cnc(N4CCCC4)nc23)c1` [Example 1(18), 4-[(3-Methylphenyl)amino]-6-(1-pyrrolidinyl)-pyrimido[5,4-d]pyrimidine], the IC50 in assay [1] was in the range of 100 to 1000 nM.

With `Cc1cccc(Nc2ncnc3cnc(NC4CC4)nc23)c1` [1(17), 4-[(3-Methylphenyl)amino]-6-(cyclopropylamino)-pyrimido[5,4-d]pyrimidine], the IC50 was 40 nM against human EGF-R, over 3 µM with F/L-HERc cells and 100 to 1000 nM in assay [1].

Regarding `CC(C)Nc1ncc2ncnc(Nc3cccc(Cl)c3)c2n1` [Example 1(96), 4-[(3-Chlorophenyl)amino]-6-(isopropylamino)-pyrim-ido[5,4-d]pyrimidine], in assay [1], the IC50 lay within 100 to 1000 nM.

For `Cc1cccc(Nc2ncnc3cnc(N[C@H]4CC[C@H](O)CC4)nc23)c1` [1(72), 4-[(3-Methylphenyl)amino]-6-[(trans-4-hydroxycyclohexyl)amino]-pyrimido[5,4-d]pyrimidine], the IC50 against human EGF-R is 3 nM; with F/L-HERc cells, over 3 µM; in assay [1] it was 100 to 1000 nM.

With `O[C@H]1CC[C@H](Nc2ncc3ncnc(Nc4cccc(Br)c4)c3n2)CC1` [Example 1(104), 4-[(3-Bromophenyl)amino]-6-[(trans-4-hydroxycyclohexyl)-amino]pyrimido[5,4-d]pyrimidine], the IC50 in assay [1] was 100 to 1000 nM.

For `Cc1cccc(Nc2ncnc3cnc(NC(C)C)nc23)c1` [Example 1(2), 4-[(3-Methylphenyl)amino]-6-(isopropylamino)-pyrimido[5,4-d]pyrimidine], the IC50 in assay [1] is 100 to 1000 nM.

Regarding `Cc1cccc(Nc2ncnc3cnc(NC(C)(C)C)nc23)c1` [1(6), 4-[(3-Methylphenyl)amino]-6-(tert-butylamino)-pyrimido[5,4-d]pyrimidine], the figures for the IC50 (against human EGF-R; in the assay with F/L-HERc cells; in assay [1]) were 5 nM, over 10 µM and 100 to 1000 nM, respectively.

`CC(C)Nc1ncc2ncnc(Nc3cccc(Br)c3)c2n1` [Example 1(95), 4-[(3-Bromophenyl)amino]-6-(isopropylamino)-pyrimido[5,4-d]pyrimidine]: in assay [1], the IC50 lay in the range of 100 to 1000 nM.

With `Clc1cccc(Nc2ncnc3cnc(NC4CC4)nc23)c1` [Example 1(83), 4-[(3-Chlorophenyl)amino]-6-(cyclopropylamino)-pyrimido[5,4-d]pyrimidine], the IC50 in assay [1] lay within 100 to 1000 nM.
